The values below come from patent US6762170B1, “2-(purin-9-yl)-tetrahydrofuran-3,4-diol derivatives” (SmithKlineBeecham Corporation, priority 1998, dated 2004).

Assay type in all cases: cell-based
One assay addresses T1, Adenosine 3 receptor (Homo sapiens, UniProt P0DMS8).
T1 construct: expressed in transfected cells; host or cells: Chinese hamster ovary (CHO) cells, co-transfected with a CRE-SPAP reporter
T1 sequence (P0DMS8 1-318): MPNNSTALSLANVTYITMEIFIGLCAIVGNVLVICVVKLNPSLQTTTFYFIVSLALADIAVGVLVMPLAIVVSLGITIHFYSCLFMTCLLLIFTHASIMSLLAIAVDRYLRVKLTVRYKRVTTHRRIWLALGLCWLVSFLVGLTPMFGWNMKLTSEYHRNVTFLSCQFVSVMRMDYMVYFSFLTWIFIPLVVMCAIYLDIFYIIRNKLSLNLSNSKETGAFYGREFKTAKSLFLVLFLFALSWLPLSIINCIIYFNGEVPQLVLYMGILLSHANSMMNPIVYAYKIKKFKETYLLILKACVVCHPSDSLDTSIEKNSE
In words: Agonist activity against adenosine 3 receptor subtype (CHO cells, forskolin-enhanced cAMP, SPAP reporter). The conditions noted are these: EC50 ratio to NECA; transfected CHO cells, forskolin-enhanced cAMP reflected by SPAP. The protocol: (§1) (1) Agonist Activity Against Adenosine 2a, Adenosine 1 and Adenosine 3 Receptor Subtypes.
(§2) Agonist selectivity of compounds against other human adenosine receptors is determined using Chinese hamster ovary (CHO) cells transfected with the gene for the relevant human adenosine receptor following a method based on that of Castanon and Spevak, 1994. The CHO cells are also transfected with cyclic AMP response elements promoting the gene for secreted placental alkaline phosphatase (SPAP) (Wood, 1995). The effect of test compounds may be determined by their effects on basal levels of cAMP (A2a) or on forskolin-enhanced cAMP (A1 and A3) as reflected by changes in levels of SPAP. EC50 values for compounds may then be determined as a ratio to that of the non-selective agonist N-ethyl carboxamide adenosine (NECA).
(§3) Values given in the Table are EC50 values as a ratio of that of NECA.

For a further assay, the target named is T2, Adenosine 1 receptor (Homo sapiens, UniProt P30542).
T2 construct: expressed in transfected cells; host or cells: Chinese hamster ovary (CHO) cells, co-transfected with a CRE-SPAP reporter
T2 sequence (P30542 1-326): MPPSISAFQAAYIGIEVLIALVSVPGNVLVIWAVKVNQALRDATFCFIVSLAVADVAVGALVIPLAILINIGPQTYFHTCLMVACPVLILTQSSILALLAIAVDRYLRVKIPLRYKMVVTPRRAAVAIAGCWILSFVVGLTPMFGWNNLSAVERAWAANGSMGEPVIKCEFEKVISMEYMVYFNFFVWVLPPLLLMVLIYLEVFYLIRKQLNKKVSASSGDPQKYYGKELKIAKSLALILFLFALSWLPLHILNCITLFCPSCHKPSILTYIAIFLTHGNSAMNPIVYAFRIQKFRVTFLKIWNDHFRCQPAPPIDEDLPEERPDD
The experiment in a line: Agonist activity against adenosine 1 receptor subtype (CHO cells, forskolin-enhanced cAMP, SPAP reporter). Particulars: EC50 ratio to NECA; transfected CHO cells, forskolin-enhanced cAMP reflected by SPAP. On the procedure: as §1, §2, §3

For the next assay, the target named is T3, Adenosine 2a receptor (Homo sapiens, UniProt P29274).
T3 construct: expressed in transfected cells; host or cells: Chinese hamster ovary (CHO) cells, co-transfected with a CRE-SPAP reporter
In words: Agonist activity against adenosine 2a receptor subtype (CHO cells, cAMP response element/SPAP reporter). The conditions noted are these: EC50 ratio to NECA; transfected CHO cells, basal cAMP reflected by SPAP. On the procedure: as §1, §2, §3

Structures can show the parent of a compound that is named as a salt. Bounds are passed on as bounds.

T3 sequence (P29274 whole entry): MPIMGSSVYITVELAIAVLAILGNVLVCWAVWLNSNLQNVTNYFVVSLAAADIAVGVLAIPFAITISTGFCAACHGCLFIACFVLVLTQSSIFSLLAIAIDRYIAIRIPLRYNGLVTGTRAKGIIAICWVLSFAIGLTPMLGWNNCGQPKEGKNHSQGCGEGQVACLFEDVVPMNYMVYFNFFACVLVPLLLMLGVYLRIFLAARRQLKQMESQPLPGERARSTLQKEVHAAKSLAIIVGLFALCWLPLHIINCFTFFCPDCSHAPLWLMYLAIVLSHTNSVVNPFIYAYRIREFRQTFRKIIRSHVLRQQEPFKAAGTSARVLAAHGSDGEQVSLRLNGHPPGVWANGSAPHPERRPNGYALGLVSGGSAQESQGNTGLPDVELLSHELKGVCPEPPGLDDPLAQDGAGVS

As to `CCOC(=O)c1cc(C2OC(n3cnc4c(NC(CC)CC)nc(NCCc5cn(C)cn5)nc43)C(O)C2O)on1` (stereo not drawn) [Example 68, 5-(5R-{6-(1-Ethyl-propylamino)-2-[2-(1-methyl-1H-imidazol-4-yl)-ethylamino]-purin-9-yl}-3S,4R-dihydroxy-tetrahydro-furan-2S-yl)-isoxazole-3-carboxylic acid ethyl ester diformate], the “A3 (EC50 values as a ratio of that of NECA)” value at Adenosine 3 receptor was >113. For the same compound, at Adenosine 1 receptor, the “A1 (EC50 values as a ratio of that of NECA)” value turned out to be 60.30. The “A2a (EC50 values as a ratio of that of NECA)” value on Adenosine 2a receptor is 30.23.
The like results for `CCc1cc([C@H]2O[C@@H](n3cnc4c(NCC(c5ccccc5)c5ccccc5)nc(NCCO)nc43)[C@H](O)[C@@H]2O)on1.O=CO` [Example 4, (2R,3R,4S,5S)-2-[6-(2,2-Diphenyl-ethylamino)-2-(2-hydroxy-ethylamino)-purin-9-yl]-5-(3-ethyl-isoxazol-5-yl)-tetrahydro-furan-3,4-diol formate] were, in that order, >267, 109.3 and 0.92.
With `CCc1cc([C@H]2O[C@@H](n3cnc4c(NC5CCOCC5)nc(NCCN5CCCCC5)nc43)[C@H](O)[C@@H]2O)on1.O=CO.O=CO` [Example 14, (2S,3S,4R,5R)-2-(3-Ethyl-isoxazol-5-yl)-5-[2-(2-piperidin-1-yl-ethylamino)-6-(tetrahydro-pyran-4-ylamino)-purin-9-yl]-tetrahydro-furan-3,4-diol diformate], the “A3 (EC50 values as a ratio of that of NECA)” value on Adenosine 3 receptor was >254. Further, on Adenosine 1 receptor, the “A1 (EC50 values as a ratio of that of NECA)” value worked out at 77.1. The “A2a (EC50 values as a ratio of that of NECA)” value at Adenosine 2a receptor was 4.99.
The corresponding values for `CCc1cc(C2OC(n3cnc4c(NC(CO)Cc5ccccc5)nc(NCCN5CCCCC5)nc43)C(O)C2O)on1` [Example 45, (2S,3S,4R,5R)-2-(3-Ethyl-isoxazol-5-yl)-5-[6-(1S-hydroxymethyl-2-phenyl-ethylamino)-2-(2-piperidin-1-yl-ethylamino)-purin-9-yl]-tetrahydro-furan-3,4-diol diformate] are >189, 54.04 and 1.93.
For `CCc1cc(C2OC(n3cnc4c(NC(CO)Cc5ccccc5)nc(NCCN5CCOCC5)nc43)C(O)C2O)on1` [Example 51, (2S,3S,4R,5R)-2-(3-Ethyl-isoxazol-5-yl)-5-[6-(1S-hydroxymethyl-2-phenyl-ethylamino)-2-(2-morpholin-4-yl-ethylamino)-purin-9-yl]-tetrahydro-furan-3,4-diol diformate], the “A3 (EC50 values as a ratio of that of NECA)” value at Adenosine 3 receptor was >340. Besides, the “A1 (EC50 values as a ratio of that of NECA)” value at Adenosine 1 receptor was determined as 22.53. In addition, the “A2a (EC50 values as a ratio of that of NECA)” value at Adenosine 2a receptor is recorded as 4.86.
The like results for “(2R,3R,4S,5S)-2-{6-(1-Ethyl-propylamino)-2-[2-(1-methyl-1H-imidazol-4-yl)-ethylamino]-purin-9-yl}-5-(3-propyl-isoxazol-5-yl)-tetrahydro-furan-3,4-diol diformate [Example 60]” were, in that order, “≧248.4”, 155.86 and 4.53.
The like results for `CCc1cc([C@H]2O[C@@H](n3cnc4c(NCC(c5ccccc5)c5ccccc5)nc(NCCNc5ccccn5)nc43)[C@H](O)[C@@H]2O)on1.O=CO.O=CO` [Example 16, (2R,3R,4S,5S)-2-{6-(2,2-Diphenyl-ethylamino)-2-[2-(pyridin-2-ylamino)-ethylamino]-purin-9-yl}-5-(3-ethyl-isoxazol-5-yl)-tetrahydro-furan-3,4-diol diformate] were, in that order, >1004, 442 and 0.35.
The corresponding values for `CCc1cc(C2OC(n3cnc4c(NC5CCS(=O)(=O)CC5)nc(NCCN5CCCCC5)nc43)C(O)C2O)on1.O=CO.O=CO` [Example 31, (2R,3R,4S,5S)-2-[6-(1,1-Dioxo-hexahydro-1λ6-thiopyran-4-ylamino)-2-(2-piperidin-1-yl-ethylamino)-purin-9-yl]-5-(3-ethyl-isoxazol-5-yl)-tetrahydro-furan-3,4-diol diformate] are >310, 577.2 and 10.59.
Regarding `CCc1cc(C2OC(n3cnc4c(NC5CCS(=O)(=O)CC5)nc(NC5CCC(N)CC5)nc43)C(O)C2O)on1` [Example 32, (2R,3R,4S,5S)-2-[2-trans-4-Amino-cyclohexylamino)-6-(1-dioxo-hexahydro-1λ6-thiopyran-4-ylamino)-purin-9-yl]-5-(3-ethyl-isoxazol-5-yl)-tetrahydro-furan-3,4-diol diformate], on Adenosine 3 receptor, the “A3 (EC50 values as a ratio of that of NECA)” value was >176. Besides, the “A1 (EC50 values as a ratio of that of NECA)” value at Adenosine 1 receptor turned out to be 31.75. Besides, the “A2a (EC50 values as a ratio of that of NECA)” value at Adenosine 2a receptor was 3.79.
The like results for `CCc1cc(C2OC(n3cnc4c(NCCS(=O)(=O)NC)nc(NCCN5CCCCC5)nc43)C(O)C2O)on1` (stereo not drawn) [Example 11, 2-[9-[5S-(3-Ethyl-isoxazol-5-yl)-3R,4S-dihydroxy-tetrahydro-furan-2R-yl]-2-(2-piperidin-1-yl-ethylamino)-9H-purin-6-ylamino]-ethanesulfonic acid methylamide diformate] were, in that order, >303, 32.9 and 3.66.
The like results for `CCc1cc(C2OC(n3cnc4c(NC(CC)CC)nc(NCCNC(=N)N)nc43)C(O)C2O)on1` (stereo not drawn) [Example 40, N-{2-[9-[5S-(3-Ethyl-isoxazol-5-yl)-3R,4S-dihydroxy-tetrahydro-furan-2R-yl]6-(1-ethyl-propylamino)-9H-purin-2-ylamino]-ethyl}-guanidine diformate] were, in that order, >88, 70.53 and 3.38.
The like results for `CCC(CC)Nc1nc(NCCN2CCCCC2)nc2c1ncn2C1OC(c2cc(Br)no2)C(O)C1O.O=CO.O=CO` [Example 67, (2S,3S,4R,5R)-2-(3-Bromo-isoxazol-5-yl)-5-[6-(1-ethyl-propylamino)-2-(2-piperidin-1-yl-ethylamino)-purin-9-yl]-tetrahydro-furan-3,4-diol diformate] were, in that order, >238, 219.1 and 2.59.
For `CCc1cc(C2OC(n3cnc4c(NCCC5CCCCC5)nc(NC(CO)Cc5ccccc5)nc43)C(O)C2O)on1` [Example 22, (2R,3R,4S,5S)-2-[6-(2-Cyclohexyl-ethylamino)-2-(1 S-hydroxy-methyl-2-phenyl-ethylamino)-purin-9-yl]-5-(3-ethyl-isoxazol-5-yl)-tetrahydro-furan-3,4-diol formate], the “A3 (EC50 values as a ratio of that of NECA)” value on Adenosine 3 receptor is recorded as >254. Besides, at Adenosine 1 receptor, the “A1 (EC50 values as a ratio of that of NECA)” value amounted to 8026.2. The “A2a (EC50 values as a ratio of that of NECA)” value on Adenosine 2a receptor amounted to 9.17.
The corresponding values for `CCC(CC)Nc1nc(NCCN2CCCCC2)nc2c1ncn2C1OC(c2cc(C)no2)C(O)C1O.O=CO.O=CO` [Example 55, (2R,3R,4S,5S)-2-[6-(1-Ethyl-propylamino)-2-(2-piperidin-1-yl-ethylamino)-purin-9-yl]-5-(3-methyl-isoxazol-5-yl)-tetrahydro-furan-3,4-diol diformate] are >353, 155.3 and 0.175.
Take `CCc1cc([C@H]2O[C@@H](n3cnc4c(NCCC(C)(C)C)nc(NCCN5CCCCC5)nc43)[C@H](O)[C@@H]2O)on1.O=CO.O=CO` [Example 41, (2R,3R,4S,5S)-2-[6-(3,3-Dimethyl-butylamino)-2-(2-piperidin-1-yl-ethylamino)-purin-9-yl]-5-(3-ethyl-isoxazol-5-yl)-tetrahydro-furan-3,4-diol diformate]: the “A3 (EC50 values as a ratio of that of NECA)” value on Adenosine 3 receptor is given as >395. In addition, at Adenosine 1 receptor, the “A1 (EC50 values as a ratio of that of NECA)” value worked out at 2907.96. At Adenosine 2a receptor, the “A2a (EC50 values as a ratio of that of NECA)” value is 27.39.
